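A five-concentration, 48-hour dose response in 96-well plates underlies each endpoint, interpolated linearly between surrounding concentrations. GI50: concentration for 50% inhibition of growth. TGI is the concentration that stops growth completely.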
Experiments:
Experiment in all cases: NCI tumour cell line growth inhibition, 48 h
786-0 renal = tested on: 786-0 renal
IGROV1 ovarian = tested on: IGROV1 ovarian
MOLT-4 leukemia = tested on: MOLT-4 leukemia
NCI-H226 lung = tested on: NCI-H226 lung
NCI-H23 lung = tested on: NCI-H23 lung
NCI-H460 lung = tested on: NCI-H460 lung
SK-OV-3 ovarian = tested on: SK-OV-3 ovarian
SN12C renal = tested on: SN12C renal
SNB-75 CNS = tested on: SNB-75 CNS
TK-10 renal = tested on: TK-10 renal

SMILES | TGI (786-0 renal) [µM] | TGI (IGROV1 ovarian) [µM] | TGI (MOLT-4 leukemia) [µM] | TGI (NCI-H226 lung) [µM] | TGI (NCI-H23 lung) [µM] | TGI (NCI-H460 lung) [µM] | TGI (SK-OV-3 ovarian) [µM] | TGI (SN12C renal) [µM] | TGI (SNB-75 CNS) [µM] | TGI (TK-10 renal) [µM] | GI50 (786-0 renal) [µM] | GI50 (IGROV1 ovarian) [µM] | GI50 (MOLT-4 leukemia) [µM] | GI50 (NCI-H226 lung) [µM] | GI50 (NCI-H23 lung) [µM] | GI50 (NCI-H460 lung) [µM] | GI50 (SK-OV-3 ovarian) [µM] | GI50 (SN12C renal) [µM] | GI50 (SNB-75 CNS) [µM] | GI50 (TK-10 renal) [µM]
CN(C)c1ccc(/C=C(/NC(=O)c2ccccc2)c2nc3ccc(Cl)cc3[nH]2)cc1 | > 100 | > 100 | 71.1 | > 85.1 | > 100 | > 100 | > 100 | > 100 | > 91.3 | > 100 | – | – | – | – | – | – | – | – | – | –
COC1(OC)CC2C=C(S(=O)(=O)c3ccccc3)C1N(Cc1ccccc1)C2=O (stereo not given) | > 100 | > 100 | > 100 | 75.9 | 40.5 | > 100 | > 100 | 68.2 | > 100 | 66.4 | – | – | – | – | – | – | – | – | – | –
CC(=O)C1CC=C(C)CC1 (stereo not given) | > 100 | > 100 | > 100 | > 100 | > 100 | > 100 | > 100 | > 100 | > 100 | > 100 | – | – | – | – | – | – | – | – | – | –
O=[N+]([O-])c1ccc(-c2nc(-c3ccccc3)c(-c3ccccc3)n2-c2ccccc2)cc1 | 22.3 | 7.28 | 11.5 | > 24.5 | 11.3 | 7.06 | 9.21 | 12.4 | 22 | 16.9 | 4.82 | 2.42 | 2.28 | 4.57 | 2.62 | 2.43 | 2.03 | 2.69 | 2.64 | 4.01
N#Cc1c(-c2ccc(Cl)cc2)n(O)c2ccccc12 | 7.04 | 8.52 | 15.5 | 12 | 6.9 | > 100 | 5.16 | > 100 | 4.44 | 9.16 | 2.24 | 3.15 | 3.61 | 2.83 | 2.02 | 2.82 | 2.17 | 3.07 | 1.21 | 3.64
CCCCCCCC/C=C/CCCCCCCC1=NCC[N+]1(CCO)CCO | 22.1 | 3.35 | 6.58 | 19.8 | 16 | 3.39 | 24.4 | 12.6 | 9.52 | 4.39 | 4.8 | 1.59 | 2.23 | 4.16 | 3.05 | 1.69 | 10.1 | 3.2 | 2.39 | 1.94
Brc1ccc(-c2nnc(-c3nn(-c4ccccc4)c4nc5ccccc5nc34)o2)cc1 | > 100 | > 100 | > 100 | > 100 | > 100 | > 100 | > 100 | > 100 | > 100 | > 100 | – | – | – | – | – | – | – | – | – | –
O=C1OCC(c2cccs2)=C1Cl | > 100 | > 100 | > 100 | 95.5 | > 100 | > 100 | > 100 | > 100 | > 100 | > 100 | > 100 | > 100 | > 100 | 28.2 | 60.6 | 56.8 | > 100 | 26.7 | 75.9 | 54.2
CC(C)[C@@]12C[C@@H](OC(=O)[C@H]3CO3)[C@@](C)(O1)[C@@H]1CC[C@@H](C)[C@H]1[C@@H]2OC(=O)/C=C/c1ccccc1 | 22 | > 83.4 | > 100 | 32.2 | > 100 | 42.5 | 45.8 | 41.2 | 29.7 | > 100 | 3.55 | 23.7 | 18.1 | 13.8 | 19.7 | 17.2 | 18.2 | 11.9 | 2.72 | 33.9

Source: PubChem BioAssay (NCI)
